We go through 13 molecules from patent publication US5413990A, “N-terminus modified analogs of LHRH” (Tap Pharmaceuticals Inc., priority 1993, dated 1995).

In general, Kb refers to the affinity of an antagonist, worked out from how it opposes an agonist.

Molecules are shown by their SMILES. Numbered stars: 1 amine (or outer) side, 2 acyl side, 3 side chain; on linkers, the order of the positions; unused ones are H or OH. Square brackets hold non-standard residues; d marks the D form. Peptide text beside a SMILES is read from it. * marks the point of attachment. dPhe(4-Cl) = N[C@H](Cc1ccc(Cl)cc1)C(=O)O; NH(2-(2-pyridyl)ethyl) = c1ccc(CCN*)nc1; NH(2-morpholinoethyl) = C(CN1CCOCC1)N*; d2Nal = N[C@H](Cc1ccc2ccccc2c1)C(=O)O; Lys(iPr) = CC(C)NCCCC[C@H](N)C(=O)O; NMeY = CN[C@@H](Cc1ccc(O)cc1)C(=O)O; Cyclohexylacetyl = O=C(CC1CCCCC1)*; Cyclopropanecarbonyl = O=C(C1CC1)*; NHCH2(2-pyridyl) = c1ccc(CN*)nc1; dCit = NC(=O)NCCC[C@@H](N)C(=O)O; d3Pal = N[C@H](Cc1cccnc1)C(=O)O; NH(3-picolyl) = c1cncc(CN*)c1; Suc = O=C(CCC(=O)[*:2])[*:1]; Succinamoyl = NC(=O)CCC(=O)*; Nicotinoyl = O=C(c1cccnc1)*; X2 = O=C(CCc1ccc2ccccc2c1)*; PhAc = O=C(Cc1ccccc1)*; CO = O=C([*:1])[*:2]; Butyryl = CCCC(=O)*; Bz = O=C(c1ccccc1)*; For = O=C*

The test concerns the target T1, LHRH (Rattus norvegicus, UniProt P30969).
T1 construct: evaluated in an in vitro test for LHRH antagonist potency (pA2); endogenous in cells; host or cells: pituitary cells (rat, from my own knowledge of the cited method)
T1 sequence (P30969 1-327): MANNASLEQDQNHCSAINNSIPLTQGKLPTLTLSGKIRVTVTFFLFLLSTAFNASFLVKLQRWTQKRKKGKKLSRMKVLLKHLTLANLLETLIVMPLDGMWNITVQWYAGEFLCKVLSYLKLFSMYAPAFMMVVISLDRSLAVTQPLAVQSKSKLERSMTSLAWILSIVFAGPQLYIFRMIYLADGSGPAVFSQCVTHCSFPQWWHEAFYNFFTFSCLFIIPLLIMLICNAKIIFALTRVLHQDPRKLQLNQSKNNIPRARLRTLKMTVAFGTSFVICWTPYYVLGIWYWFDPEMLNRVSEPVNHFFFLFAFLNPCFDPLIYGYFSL
Description: in vitro test for LHRH antagonist potency (pA2). In kind it is cell-based. As to conditions: negative logarithm of the antagonist concentration required to shift the response curve produced by the agonist leuprolide to two-fold higher concentration. The protocol: Representative compounds of the present invention were evaluated in an in vitro test for LHRH antagonist potency (pA2). The test employed the method detailed in F. Haviv, et al. J. Med. Chem., 32:2340-2344 (1989). The values of pA2 are the negative logarithms of the concentration of the particular antagonist test compound required to shift the response curve produced by the agonist leuprolide to two-fold higher concentration. (Leuprolide is the LHRH agonist having the structure 5-oxo-Pro^1 -His^2 -Trp^3 -Ser^4 -Tyr^5 -D-Leu^6 -Leu^7 -Arg^8 -Pro^9 -NHEt and is disclosed and claimed in U.S. Pat. No. 4,005,063.) Typically pA2 values of 9.5 or greater are indicative of good LHRH antagonist potency, with values of 10.0 or greater being preferred.
For the molecule `CC(C)C[C@H](NC(=O)[C@@H](CCCNC(N)=O)NC(=O)[C@H](Cc1ccc(O)cc1)N(C)C(=O)[C@H](CO)NC(=O)[C@@H](Cc1cccnc1)NC(=O)[C@@H](Cc1ccc(Cl)cc1)NC(=O)[C@@H](Cc1ccc2ccccc2c1)NC(=O)CCC(=O)O)C(=O)N[C@@H](CCCNC(=N)N)C(=O)N1CCC[C@H]1C(=O)N[C@H](C)C(N)=O` [Example 6, N-Succinyl-D2Nal-D4ClPhe-D3Pal-Ser-NMeTyr-DCit-Leu-Arg-Pro-DAlaNH2] (Suc-[d2Nal][dPhe(4-Cl)][d3Pal]S[NMeY][dCit]LRP[dA]-NH2), the Kb was 0.0398 nM.

`CC(C)C[C@H](NC(=O)[C@@H](CCCNC(N)=O)NC(=O)[C@H](Cc1ccc(O)cc1)N(C)C(=O)[C@H](CO)NC(=O)[C@@H](Cc1cccnc1)NC(=O)[C@@H](Cc1ccc(Cl)cc1)NC(=O)[C@@H](Cc1ccc2ccccc2c1)NC(=O)CCC(N)=O)C(=O)N[C@@H](CCCNC(=N)N)C(=O)N1CCC[C@H]1C(=O)N[C@H](C)C(N)=O` [Example 5d, N-Succinamyl-D2Nal-D4ClPhe-D3Pal-Ser-NMeTyr-DCit-Leu-Arg-Pro-DAlaNH2] (Succinamoyl-[d2Nal][dPhe(4-Cl)][d3Pal]S[NMeY][dCit]LRP[dA]-NH2): the Kb was 0.00646 nM.

For the molecule `CC(C)C[C@H](NC(=O)[C@@H](CCCCNC(=O)c1cccnc1)NC(=O)[C@H](Cc1ccc(O)cc1)N(C)C(=O)[C@H](CO)NC(=O)[C@@H](Cc1cccnc1)NC(=O)[C@@H](Cc1ccc(Cl)cc1)NC(=O)[C@@H](Cc1ccc2ccccc2c1)NC(=O)CCc1ccc2ccccc2c1)C(=O)N[C@@H](CCCCNC(C)C)C(=O)N1CCC[C@H]1C(=O)N[C@H](C)C(N)=O` [Example 2o, N-3(2-Naphthyl)propionyl-D2Nal-D4ClPhe-D3Pal-Ser-NMeTyr-DLys(N-epsilon-Nicotinyl)-Leu-Lys(N-epsilon-Isopropyl) -Pro-DAlaNH2] (X2-[d2Nal][dPhe(4-Cl)][d3Pal]S[NMeY][dK](Nicotinoyl)L[Lys(iPr)]P[dA]-NH2), the antagonist dissociation constant (Kb) is 0.0794 nM.

For `CC(C)C[C@H](NC(=O)[C@@H](CCCNC(N)=O)NC(=O)[C@H](Cc1ccc(O)cc1)N(C)C(=O)[C@H](CO)NC(=O)[C@@H](Cc1cccnc1)NC(=O)[C@@H](Cc1ccc(Cl)cc1)NC(=O)[C@@H](Cc1ccc2ccccc2c1)NC(=O)C1CC1)C(=O)N[C@@H](CCCNC(=N)N)C(=O)N1CCC[C@H]1C(=O)N[C@H](C)C(N)=O` [Example 5e, N-Cyclopropylcarbonyl-D2Nal-D4ClPhe-D3PaI-Ser-NMeTyr-DCit-Leu-Arg-ProDAlaNH2] (Cyclopropanecarbonyl-[d2Nal][dPhe(4-Cl)][d3Pal]S[NMeY][dCit]LRP[dA]-NH2), the Kb was 0.0112 nM.

`CC(C)C[C@H](NC(=O)[C@@H](CCCNC(N)=O)NC(=O)[C@H](Cc1ccc(O)cc1)N(C)C(=O)[C@H](CO)NC(=O)[C@@H](Cc1cccnc1)NC(=O)[C@@H](Cc1ccc(Cl)cc1)NC(=O)[C@@H](Cc1ccc2ccccc2c1)NC(=O)NCCN1CCOCC1)C(=O)N[C@@H](CCCNC(=N)N)C(=O)N1CCC[C@H]1C(=O)N[C@H](C)C(N)=O` [Example 8c, N-(Morpholinoethylaminocarbonyl)-D2Nal-D4ClPhe-D3Pal-Ser-NMeTyr-DCit-Leu-Arg-Pro-DAlaNH2] ({NH(2-morpholinoethyl)-CO}-[d2Nal][dPhe(4-Cl)][d3Pal]S[NMeY][dCit]LRP[dA]-NH2): the antagonist dissociation constant (Kb) was 0.049 nM.

As for `CC(C)C[C@H](NC(=O)[C@@H](CCCCNC(=O)c1cccnc1)NC(=O)[C@H](Cc1ccc(O)cc1)N(C)C(=O)[C@H](CO)NC(=O)[C@@H](Cc1cccnc1)NC(=O)[C@@H](Cc1ccc(Cl)cc1)NC(=O)[C@@H](Cc1ccc2ccccc2c1)NC(=O)c1ccccc1)C(=O)N[C@@H](CCCCNC(C)C)C(=O)N1CCC[C@H]1C(=O)N[C@H](C)C(N)=O` [Example 2j, N-Benzoyl-D2Nal-D4ClPhe-D3Pal-Ser-NMeTyr-DLys(N-epsilon-Nicotinyl)-Leu-Lys(N-epsilon-Isopropyl)-Pro-DAlaNH2] (Bz-[d2Nal][dPhe(4-Cl)][d3Pal]S[NMeY][dK](Nicotinoyl)L[Lys(iPr)]P[dA]-NH2), the Kb is 0.0501 nM.

Consider `CC(C)C[C@H](NC(=O)[C@@H](CCCNC(N)=O)NC(=O)[C@H](Cc1ccc(O)cc1)N(C)C(=O)[C@H](CO)NC(=O)[C@@H](Cc1cccnc1)NC(=O)[C@@H](Cc1ccc(Cl)cc1)NC(=O)[C@@H](Cc1ccc2ccccc2c1)NC(=O)NCc1ccccn1)C(=O)N[C@@H](CCCNC(=N)N)C(=O)N1CCC[C@H]1C(=O)N[C@H](C)C(N)=O` [Example 8e, N-(2-Pyridyhnethylaminocarbonyl)-D2Nal-D4ClPhe-D3Pal- Ser-NMeTyr-DCit-Leu-Arg-Pro-DAlaNH2] ({NHCH2(2-pyridyl)-CO}-[d2Nal][dPhe(4-Cl)][d3Pal]S[NMeY][dCit]LRP[dA]-NH2), for which the Kb is 0.00676 nM.

For `CCCC(=O)N[C@H](Cc1ccc2ccccc2c1)C(=O)N[C@H](Cc1ccc(Cl)cc1)C(=O)N[C@H](Cc1cccnc1)C(=O)N[C@@H](CO)C(=O)N(C)[C@@H](Cc1ccc(O)cc1)C(=O)N[C@H](CCCNC(N)=O)C(=O)N[C@@H](CC(C)C)C(=O)N[C@@H](CCCNC(=N)N)C(=O)N1CCC[C@H]1C(=O)N[C@H](C)C(N)=O` [Example 5c, N-Butyryl-D2Nal-D4ClPhe-D3Pal-Ser-NMeTyr-DCit-Leu-Arg-Pro-DAlaNH2] (Butyryl-[d2Nal][dPhe(4-Cl)][d3Pal]S[NMeY][dCit]LRP[dA]-NH2), the Kb was 0.00562 nM.

Take `CC(C)C[C@H](NC(=O)[C@@H](CCCNC(N)=O)NC(=O)[C@H](Cc1ccc(O)cc1)N(C)C(=O)[C@H](CO)NC(=O)[C@@H](Cc1cccnc1)NC(=O)[C@@H](Cc1ccc(Cl)cc1)NC(=O)[C@@H](Cc1ccc2ccccc2c1)NC(=O)NCCc1ccccn1)C(=O)N[C@@H](CCCNC(=N)N)C(=O)N1CCC[C@H]1C(=O)N[C@H](C)C(N)=O` [Example 8g, N-(2-Pyridylethylaminocarbonyl)-D2Nal-D4ClPhe-D3Pal-Ser-NMeTyr-DCit-Leu-Arg-Pro-DAlaNH2] ({NH(2-(2-pyridyl)ethyl)-CO}-[d2Nal][dPhe(4-Cl)][d3Pal]S[NMeY][dCit]LRP[dA]-NH2): the Kb was 0.0178 nM.

Take `CC(C)C[C@H](NC(=O)[C@@H](CCCCNC(=O)c1cccnc1)NC(=O)[C@H](Cc1ccc(O)cc1)N(C)C(=O)[C@H](CO)NC(=O)[C@@H](Cc1cccnc1)NC(=O)[C@@H](Cc1ccc(Cl)cc1)NC(=O)[C@@H](Cc1ccc2ccccc2c1)NC=O)C(=O)N[C@@H](CCCCNC(C)C)C(=O)N1CCC[C@H]1C(=O)N[C@H](C)C(N)=O` [Example 1, N-Formyl-D2Nal-D4ClPhe-D3Pal-Ser-NMeTyr-DLys(Nicotinyl)-Leu-Lys(N-epsilon-lsopropyl)-Pro-DAlaNH2] (For-[d2Nal][dPhe(4-Cl)][d3Pal]S[NMeY][dK](Nicotinoyl)L[Lys(iPr)]P[dA]-NH2): the Kb is 0.00158 nM.

`CC(C)C[C@H](NC(=O)[C@@H](CCCNC(N)=O)NC(=O)[C@H](Cc1ccc(O)cc1)N(C)C(=O)[C@H](CO)NC(=O)[C@@H](Cc1cccnc1)NC(=O)[C@@H](Cc1ccc(Cl)cc1)NC(=O)[C@@H](Cc1ccc2ccccc2c1)NC(=O)Cc1ccccc1)C(=O)N[C@@H](CCCNC(=N)N)C(=O)N1CCC[C@H]1C(=O)N[C@H](C)C(N)=O` [Example 5f, NPhenylacetyl-D2Nal-D4ClPhe-D3Pal-Ser-NMeTyr-DCit-Leu-Arg-Pro-DAlaNH2] (PhAc-[d2Nal][dPhe(4-Cl)][d3Pal]S[NMeY][dCit]LRP[dA]-NH2): the Kb is 0.0158 nM.

Consider `CC(C)C[C@H](NC(=O)[C@@H](CCCCNC(=O)c1cccnc1)NC(=O)[C@H](Cc1ccc(O)cc1)N(C)C(=O)[C@H](CO)NC(=O)[C@@H](Cc1cccnc1)NC(=O)[C@@H](Cc1ccc(Cl)cc1)NC(=O)[C@@H](Cc1ccc2ccccc2c1)NC(=O)CC1CCCCC1)C(=O)N[C@@H](CCCCNC(C)C)C(=O)N1CCC[C@H]1C(=O)N[C@H](C)C(N)=O` [Example 2i, N-Cyclohexylacetyl-D2Nal-D4ClPhe-D3Pal-Ser-NMeTyr-DLys(N-epsilon-Nicotinyl)-Leu-Lys(N-epsilon-Isopropyl)-Pro-DAlaNH 2] (Cyclohexylacetyl-[d2Nal][dPhe(4-Cl)][d3Pal]S[NMeY][dK](Nicotinoyl)L[Lys(iPr)]P[dA]-NH2), for which the antagonist dissociation constant (Kb) is 1.58 nM.

Take `CC(C)C[C@H](NC(=O)[C@@H](CCCNC(N)=O)NC(=O)[C@H](Cc1ccc(O)cc1)N(C)C(=O)[C@H](CO)NC(=O)[C@@H](Cc1cccnc1)NC(=O)[C@@H](Cc1ccc(Cl)cc1)NC(=O)[C@@H](Cc1ccc2ccccc2c1)NC(=O)NCc1cccnc1)C(=O)N[C@@H](CCCNC(=N)N)C(=O)N1CCC[C@H]1C(=O)N[C@H](C)C(N)=O` [Example 8f, N-(3-Pyridyhnethylaminocarbonyl)-D2Nal-D4ClPhe-D3Pal-Ser-NMeTyr-DCit-Leu-Arg-Pro-DAlaNH2] ({NH(3-picolyl)-CO}-[d2Nal][dPhe(4-Cl)][d3Pal]S[NMeY][dCit]LRP[dA]-NH2): the Kb is 0.0363 nM.
